From patent publication US12172975B2, “1H-indazole carboxamides as receptor-interacting protein kinase 1 inhibitors (RIPK1)” (BRISTOL-MYERS SQUIBB COMPANY, priority 2018, dated 2024)
Counter-ions that a name gives are not always drawn. Like-named read-outs stand apart in the source and are kept apart here.

Test system: MLKL phosphorylation in HT29-L23 human colorectal adenocarcinoma cells
Assay: MLKL Phosphorylation High-Content Assay
Format: cell-based
Details: 6 h, necroptosis induced with TNFα, SMAC mimetic and Z-VAD, read-out: pMLKL (IC50)
Procedure: MLKL Phosphorylation High-Content Assay
HT29-L23 human colorectal adenocarcinoma cells were maintained in RPMI 1640 medium containing 10% heat-inactivated FBS, 1% Penicillin-Streptomycin and 10 mM HEPES. Cells were seeded at 2,000 cells/well in 384 well tissue culture-treated microplates (Greiner #781090-3B) and incubated at 37° C. (5% CO2/95% O2) for 2 d. […] (5% CO2/95% O2). Necroptopsis was induced using a mixture of human TNFα (35 ng/mL) (Peprotech #300-01A), SMAC mimetic (from US 2015/0322111 A1) (700 nM) and Z-VAD ([…]) (BD pharmingen #51-6936). Following 6 h incubation at 37° C. (5% CO2/95% O2), the cells were fixed with 4% formaldehyde (ACROS 11969-0010) for 15 min at rt, then permeabilized with phosphate buffered saline (PBS) containing 0.2% Triton-X-100 for 10 min. MLKL phosphorylation was detected using anti-MLKL (phospho S358) antibody (Abeam #ab 187091) (1:1000 dilution in Blocking Buffer [PBS supplemented with 0.1% BSA]) with ON incubation at 4° C. After washing three times in PBS, goat anti-rabbit Alexa-488 (1:1000 dilution) (Life Technologies, A11008) and Hoechst 33342 (Life Technologies, H3570) (1:2000 dilution) in Blocking Buffer were added for 1 h at rt.
Following another three cycles of washes in PBS, the microplates were sealed, and cellular images were acquired in the Cellomics ArrayScan VTI high-content imager equipped with an X1 camera. Fluorescent images were taken using a 10× objective and the 386-23 BGRFRN_BGRFRN and 485-20 BGRFRN_BGRFRN filter sets, for nuclei and MLKL phosphorylation, respectively. The image sets were analyzed using the Compartmental Analysis Bioapplication software (Cellomics). The level of MLKL phosphorylation was quantified as MEAN_CircRingAvglntenRatio. The maximal inhibitory response was defined by the activity induced by Neels (CAS #: 852391-15-2, 6.25 μM). […] The data were fitted using the 4-parameter logistic equation to calculate the IC50 and Ymax values.

CNC(=O)c1n[nH]c2cc(-c3cnc(OC)c(C(=O)N[C@H](C)CC(=O)OC(C)(C)C)c3)ccc12 [Example 141, tert-butyl (3R)-3-({2-methoxy-5-[3-(methylcarbamoyl)-1H-indazol-6-yl]pyridin-3-yl}-formamido)butanoate] was tested, and the IC50 (Homo sapiens) was 41 nM.

[2H]C([2H])([2H])NC(=O)c1n[nH]c2cc(-c3cnc(OC([2H])([2H])[2H])c(C(=O)N[C@@H](C)c4cccc(OC(F)(F)F)c4)c3)ccc12 [Example 220, 6-[6-(deutero)methoxy-5-{[(1S)-1-[3-(trifluoromethoxy)phenyl]ethyl]-carbamoyl}pyridin-3-yl]-N-(deutero)-methyl-1H-indazole-3-carboxamide] showed an IC50 (Homo sapiens) of 100 nM.

For CNC(=O)c1n[nH]c2cc(-c3cnc(OC)c(C(=O)NCCCC(=O)N(CC4CC4)C4CC4)c3)ccc12 [Example 142, 6-[5-({3-[cyclopropyl(cyclo-propylmethyl)carbamoyl]-propyl}carbamoyl)-6-meth-oxypyridin-3-yl]-N-methyl-1H-indazole-3-carboxamide], the IC50 (Homo sapiens) was 120 nM.

CNC(=O)c1n[nH]c2cc(-c3cnc(OC)c(C(=O)N[C@H]4CC[C@@H](c5ccccc5)C4)c3)ccc12 [Example 67, 6-(6-methoxy-5-{[(1S,3R)-3-phenylcyclopentyl]carbamoyl}-pyridin-3-yl)-N-methyl-1H-indazole-3-carboxamide] gave an IC50 (Homo sapiens) of 39 nM.

Work on [2H]C([2H])([2H])Oc1ncc(-c2ccc3c(C(=O)NC)n[nH]c3c2)cc1C(=O)N[C@H](C)c1cc(OC(F)(F)F)ccc1F [Example 30, 6-(5-{[(1R)-1-[2-fluoro-5-(tri-fluoromethoxy)phenyl]ethyl]-carbamoyl}-6-(deutero)methoxy-pyridin-3-yl)-N-methyl-1H-indazole-3-carboxamide] yielded an IC50 (Homo sapiens) of 48 nM.

Compound CNC(=O)c1n[nH]c2cc(-c3cnc(OC)c(C(=O)NCC4CC4c4cccc(F)c4)c3)ccc12 (centres unmarked) [Example 48, 6-[5-({[2-(3-fluorophenyl)-cyclopropyl]methyl}carbamoyl)-6-methoxypyridin-3-yl]-N-methyl-1H-indazole-3-carbox-amide] has an IC50 of 176 nM.

COc1ncc(-c2ccc3c(C(=O)NC(C)C)n[nH]c3c2)cc1C(=O)NCc1ccccc1OC(F)(F)F [Example 179, 6-[6-methoxy-5-({[2-(trifluoro-methoxy)phenyl]methyl}carbam-oyl)pyridin-3-yl]-N-(propan-2-yl)-1H-indazole-3-carboxamide] showed an IC50 (Homo sapiens) of 73 nM.

For CNC(=O)c1n[nH]c2cc(-c3cnc(OC)c(C(=O)NCCCOC4CCCCO4)c3)ccc12 (centres unmarked) [Example 61, 6-(6-methoxy-5-{[3-(oxan-2-yloxy)propyl]carbamoyl}-pyridin-3-yl)-N-methyl-1H-indazole-3-carboxamide], the IC50 (Homo sapiens) was 28 nM.

In the case of [2H]C([2H])([2H])Oc1ncc(-c2ccc3c(C(=O)NC4CC4)n[nH]c3c2)cc1C(=O)N[C@@H](C)c1cccc(C(F)(F)F)c1 [Example 211, N-cyclopropyl-6-[6-(deutero)-methoxy-5-{[(1S)-1-[3-(trifluoro-methyl)phenyl]ethyl]carbamoyl}-pyridin-3-yl]-1H-indazole-3-carboxamide], the IC50 (Homo sapiens) is reported as 27 nM.

CNC(=O)c1n[nH]c2cc(-c3cnc(OC)c(C(=O)NCCS(=O)(=O)Nc4ccccc4)c3)ccc12 [Example 47, 6-(6-methoxy-5-{[2-(phenyl-sulfamoyl)ethyl]carbamoyl}-pyridin-3-yl)-N-methyl-1H-indazole-3-carboxamide] gave an IC50 (Homo sapiens) of 38 nM.

In the case of [2H]C([2H])([2H])Oc1ncc(-c2ccc3c(C(=O)NC)n[nH]c3c2)cc1C(=O)N[C@@H](c1cccc(OC(F)(F)F)c1)C([2H])([2H])[2H] [Example 11, (R)-6-(6-(methoxy-d3)-5-((1-(3-(trifluoromethoxy)phenyl)ethyl-2,2,2-d3)carbamoyl)pyridin-3-yl)-N-methyl-1H-indazole-3-carboxamide, TFA], the IC50 (Homo sapiens) is reported as 223 nM.

“N-[(1,1,2,2,2-deutero)ethyl]-6-(5- {[(1R)-1-[2-fluoro-5-(trifluoro- methyl)phenyl]ethyl]carbamoyl}-6- (deutero)methoxypyridin-3-yl)-1H- indazole-3-carboxamide [Example 227]” showed an IC50 of 69 nM.

Compound CNC(=O)c1n[nH]c2cc(-c3cc(C(=O)NCc4cc(OC(F)(F)F)ccc4F)c(OC)nc3C)ccc12 [Example 161, 6-[5-({[2-fluoro-5-(tri-fluoromethoxy)phenyl]-methyl}carbamoyl)-6-methoxy-2-methylpyridin-3-yl]-N-methyl-1H-indazole-3-carboxamide] has an IC50 (Homo sapiens) of 74 nM.

For CNC(=O)c1n[nH]c2cc(-c3cnc(OC)c(C(=O)N[C@@H]4C[C@H]4c4ccccc4)c3)ccc12 [Example 45, 6-(6-methoxy-5-{[(1R,2S)-2-phenylcyclopropyl]carbamoyl}-pyridin-3-yl)-N-methyl-1H-indazole-3-carboxamide], the IC50 (Homo sapiens) was 5 nM.

Work on CNC(=O)c1n[nH]c2cc(-c3cnc(OC)c(C(=O)N[C@H]4C[C@@H]4c4ccccc4)c3)ccc12 [Example 46, 6-(6-methoxy-5-{[(1S,2R)-2-phenylcyclopropyl]carbamoyl}-pyridin-3-yl)-N-methyl-1H-indazole-3-carboxamide] yielded an IC50 (Homo sapiens) of 4.4 nM.

For CNC(=O)c1n[nH]c2cc(-c3cnc(OC)c(C(=O)NCc4cc(F)cc(F)c4OC)c3)ccc12 [Example 89, 6-(5-{[(3,5-difluoro-2-methoxy-phenyl)methyl]carbamoyl}-6-methoxy-pyridin-3-yl)-N-methyl-1H-indazole-3-carbox-amide], the IC50 was 85 nM.

COc1ncc(-c2ccc3c(C(=O)NC4CC4)n[nH]c3c2)cc1C(=O)NCc1ccccc1OC(F)(F)F [Example 174, N-cyclopropyl-6-[6-methoxy-5-({[2-(trifluoromethoxy)phenyl]-methyl}carbamoyl)pyridin-3-yl]-1H-indazole-3-carboxamide] showed an IC50 (Homo sapiens) of 14 nM.

In the case of CCc1ccccc1CNC(=O)c1cc(-c2ccc3c(C(=O)NC)n[nH]c3c2)cnc1OC [Example 82, 6-(5-{[(2-ethylphenyl)methyl]-carbamoyl}-6-methoxy-pyridin-3-yl)-N-methyl-1H-indazole-3-carboxamide], the IC50 (Homo sapiens) is reported as 41 nM.

With [2H]C([2H])([2H])Oc1ncc(-c2ccc3c(C(=O)NC)n[nH]c3c2)cc1C(=O)N[C@H](C)CC(=O)OC(C)(C)C [Example 29, tert-butyl (3R)-3-{[2-(deutero)-methoxy-5-[3-(methylcarbam-oyl)-1H-indazol-6-yl]pyridin-3-yl]formamido}butanoate] the IC50 (Homo sapiens) was 76 nM.

CNC(=O)c1n[nH]c2cc(-c3cnc(OC)c(C(=O)NCCCOC(C)(C)C)c3)ccc12 [Example 60, 6-(5-{[3-(tert-butoxy)propyl]-carbamoyl}-6-methoxypyridin-3-yl)-N-methyl-1H-indazole-3-carboxamide] showed an IC50 (Homo sapiens) of 16 nM.

Compound [2H]C([2H])([2H])Oc1ncc(-c2ccc3c(C(=O)NC)n[nH]c3c2)cc1C(=O)N[C@H](C)c1ccccc1C(F)(F)F [Example 33, 6-[6-(deutero)methoxy-5-{[(1R)-1-[2-(trifluoromethyl)phenyl]-ethyl]carbamoyl}pyridin-3-yl]-N-methyl-1H-indazole-3-carbox-amide] has an IC50 (Homo sapiens) of 25 nM.

CNC(=O)c1n[nH]c2cc(-c3cnc(OC)c(C(=O)NCc4ccccc4N4CCC(CO)CC4)c3)ccc12 [Example 57, 6-{5-[({2-[4-(hydroxymethyl)-piperidin-1-yl]phenyl}methyl)-carbamoyl]-6-methoxypyridin-3-yl}-N-methyl-1H-indazole-3-carboxamide] gave an IC50 (Homo sapiens) of 110 nM.

Work on [2H]C([2H])([2H])NC(=O)c1n[nH]c2cc(-c3cnc(OC([2H])([2H])[2H])c(C(=O)N[C@@H](C)c4cc(C(F)(F)F)ccc4F)c3)ccc12 [Example 213, 6-(5-{[(1S)-1-[2-fluoro-5-(trifluoro-methyl)phenyl]ethyl]carbamoyl}-6-(deutero)methoxypyridin-3-yl)-N-(deutero)methyl-1H-indazole-3-carboxamide] yielded an IC50 (Homo sapiens) of 21 nM.

[2H]C([2H])([2H])Oc1ncc(-c2ccc3c(C(=O)NC)n[nH]c3c2)cc1C(=O)N[C@H](C)c1cccc(OC(F)(F)F)c1 [Example 14, (R)-6-(6-methoxyd3-5-((1-(3-(trifluoromethoxy)phenyl)ethyl)carbamoyl)pyridin-3-yl)-N-methyl-1H-indazole-3-carboxamide] gave an IC50 (Homo sapiens) of 37 nM.

With [2H]C([2H])([2H])Oc1ncc(-c2ccc3c(C(=O)NC)n[nH]c3c2)cc1C(=O)N[C@@H](C)c1cccc(OC(F)(F)F)c1 [Example 25] the IC50 (Homo sapiens) was 190 nM.

In the case of [2H]C([2H])([2H])Oc1ncc(-c2ccc3c(C(=O)NC)n[nH]c3c2)cc1C(=O)N[C@H](c1cc(OC(F)(F)F)ccc1F)C([2H])([2H])[2H] [Example 10, (S)-6-(5-((1-(2-fluoro-5-(trifluoromethoxy)phenyl)ethyl-2,2,2-d3)carbamoyl)-6-(methoxy-d3)pyridin-3-yl)-N-methyl-1H-indazole-3-carboxamide], the IC50 (Homo sapiens) is reported as 6.4 nM.
